In ChEMBL document CHEMBL1156858, “Comparative analysis of DNA alkylation by conjugates between pyrrole-imidazole hairpin polyamides and chlorambucil or seco-CBI” (2010):
Active and inactive are the calls of the source. No cut-off for these calls is given here.

What was measured:
[1] = system: Nucleic Acid; test: Induction of DNA alkylation at 3'-side adenines in 5'-AGCAGTCAAAAA-3' site of 5'-Texas Red-modified 209bp DNA fragment at 10 nm to 1 uM after 18 hrs at 23 degC by high-resolution denaturing PAGE; assay type: nucleic-acid assay
[2] = system: Nucleic Acid; test: Induction of DNA alkylation at 5' side in 5'-AGCAGTC-3' site of 5'-Texas Red-modified 209bp DNA fragment at 10 nm to 1 uM after 18 hrs at 23 degC by high-resolution denaturing PAGE; assay type: nucleic-acid assay
[3] = system: Nucleic Acid; test: Induction of DNA alkylation at 5'-AAAAAAGACTGCT-3' site of 5'-Texas Red-modified 209bp DNA fragment at 10 nm to 1 uM after 18 hrs at 23 degC by high-resolution denaturing PAGE; assay type: nucleic-acid assay
[4] = system: K562; test: Growth inhibition of human K562 cells after 48 hrs by WST8 dye reduction assay; assay type: functional; conditions: K562, 48 h
[5] = system: Nucleic Acid; test: Induction of DNA alkylation at 5'-TCTTTTTAA-3' site of 5'-Texas Red-modified 209bp DNA fragment at 10 nm to 1 uM after 18 hrs at 23 degC by high-resolution denaturing PAGE; assay type: nucleic-acid assay

SMILES | Activity [1] | Activity [2] | Activity [3] | GI50 [4] [nM] | Activity [5]
CC(=O)Nc1cn(C)c(C(=O)Nc2cc(C(=O)Nc3cc(C(=O)NCCC(=O)Nc4cn(C)c(C(=O)Nc5cc(C(=O)N[C@H](CCNC(=O)CCCc6ccc(N(CCCl)CCCl)cc6)C(=O)Nc6cnc(C(=O)Nc7cc(C(=O)NCCC(=O)Nc8cn(C)c(C(=O)Nc9cc(C(=O)Nc%10cc(C(=O)NCCCN(C)C)n(C)c%10)n(C)c9)n8)n(C)c7)n6C)n(C)c5)n4)n(C)c3)n(C)c2)n1 | Active | Active | inactive | > 10000 | –
CC(=O)Nc1cn(C)c(C(=O)Nc2cc(C(=O)Nc3cc(C(=O)NCCC(=O)Nc4cn(C)c(C(=O)Nc5cc(C(=O)NCCCC(=O)Nc6cnc(C(=O)Nc7cc(C(=O)NCCC(=O)Nc8cn(C)c(C(=O)Nc9cc(C(=O)Nc%10cc(C(=O)NCCCN(C)CCCNC(=O)CCCc%11ccc(N(CCCl)CCCl)cc%11)n(C)c%10)n(C)c9)n8)n(C)c7)n6C)n(C)c5)n4)n(C)c3)n(C)c2)n1 | Active | – | Active | > 2500 | –
CN(C)CCCNC(=O)c1cc(NC(=O)c2cc(NC(=O)c3nc(NC(=O)CCNC(=O)c4cc(NC(=O)c5ncc(NC(=O)CCCNC(=O)c6cc(NC(=O)c7nc(NC(=O)CCNC(=O)c8cc(NC(=O)c9cc(NC(=O)c%10nc(NC(=O)CCNC(=O)CCCc%11ccc(N(CCCl)CCCl)cc%11)cn%10C)cn9C)cn8C)cn7C)cn6C)n5C)cn4C)cn3C)cn2C)cn1C | Active | – | inactive | 8000 | –
CC(=O)Nc1cn(C)c(C(=O)Nc2cc(C(=O)Nc3cc(C(=O)NCCC(=O)Nc4cn(C)c(C(=O)Nc5cc(C(=O)NCCCC(=O)Nc6cn(C)c(C(=O)Nc7cc(C(=O)NCCC(=O)Nc8cn(C)c(C(=O)Nc9ccc%10[nH]c(C(=O)N%11CC(CCl)c%12c%11cc(O)c%11ccccc%12%11)cc%10c9)n8)n(C)c7)n6)n(C)c5)n4)n(C)c3)n(C)c2)n1 (configuration not stated) | Active | – | – | 60 | Active
CN(C)CCCNC(=O)c1cc(NC(=O)c2cc(NC(=O)c3nc(NC(=O)CCNC(=O)c4cc(NC(=O)c5ncc(NC(=O)CCCNC(=O)c6cc(NC(=O)c7nc(NC(=O)CCNC(=O)c8cc(NC(=O)c9cc(NC(=O)c%10nc(NC(=O)CCCc%11ccc(N(CCCl)CCCl)cc%11)cn%10C)cn9C)cn8C)cn7C)cn6C)n5C)cn4C)cn3C)cn2C)cn1C | Active | – | inactive | > 2500 | Active
